Assay: Addition of hypericin to whole blood: standard blood chemistries, complete blood count, coagulation profile
Set-up: species or system human; MCV / MCH / MCHC / Bilirubin (direct): unit not given here
Procedure: Triplicate samples of blood were drawn from two normal individuals directly into vacuum tubes. Into one set of tubes was added hypericin dissolved in 10% ethanol, 40% propylene glycol, 50% water to a final concentration of hypericin of 0.1 micrograms/ml of blood. A second set of tubes received hypericin at 1.0 micrograms/ml of blood. The final concentration of ethanol was 0.01% and of propylene glycol 0.04% in each sample, respectively. The third set served as an untreated control. Hypericin-treated and untreated samples were taken directly to a clinical laboratory for testing of standard blood chemistries, complete blood count, and a coagulation profile.

## Cc1cc(O)c2c(=O)c3c(O)cc(O)c4c5c(O)cc(O)c6c(=O)c7c(O)cc(C)c8c1c2c(c34)c(c78)c65 [hypericin]
1.0 and 0.1 micrograms/ml
  effect on blood chemistries and hematologic parameters (summary): no significant effect
Subject #1, 0.1 micrograms/ml
  BUN: 13 mg/dL
  Bilirubin: 0.5 mg/dL
  Bilirubin (direct): 0.1
  CO2: 28 meq/l
  Ca^+: 10.1 mg/dL
  Cl^-: 106 meq/l
  Creat: 0.9 mg/dL
  ESR: 5 mm/hr
  Hb: 15.8 gm/dl
  Hct: 46.7%
  K^+: 4.2 meq/l
  LDH: 154 IU/l
  MCH: 30.8
  MCHC: 33.8
  MCV: 91.0
  Na^+: 140 meq/l
  SGOT: 19 IU/l
  WBC: 8.1 /cu mm
  albumin: 4.8 gm/dl
  alk phos: 76 IU/l
  cholesterol: 255 mg/dL
  glucose: 107 mg/dL
  lymphs: 34.9%
  monos: 4.2%
  neutr: 60.9%
  phosphate: 3.7 mg/dL
  total protein: 7.5 gm/dl
  uric acid: 5.7 mg/dL
Subject #1, 1.0 micrograms/ml
  BUN: 12 mg/dL
  Bilirubin: 0.5 mg/dL
  Bilirubin (direct): 0.1
  CO2: 28 meq/l
  Ca^+: 10.2 mg/dL
  Cl^-: 106 meq/l
  Creat: 0.9 mg/dL
  ESR: 4 mm/hr
  Hb: 16.0 gm/dl
  Hct: 47.6%
  K^+: 4.3 meq/l
  LDH: 153 IU/l
  MCH: 30.6
  MCHC: 33.6
  MCV: 91.1
  Na^+: 137 meq/l
  SGOT: 15 IU/l
  WBC: 8.0 /cu mm
  albumin: 4.8 gm/dl
  alk phos: 75 IU/l
  cholesterol: 258 mg/dL
  glucose: 105 mg/dL
  lymphs: 32.9%
  monos: 5.5%
  neutr: 61.6%
  phosphate: 3.6 mg/dL
  total protein: 7.5 gm/dl
  uric acid: 5.6 mg/dL
Subject #2, 0.1 micrograms/ml
  BUN: 9 mg/dL
  Bilirubin: 0.5 mg/dL
  Bilirubin (direct): 0.1
  CO2: 27 meq/l
  Ca^+: 9.5 mg/dL
  Cl^-: 108 meq/l
  Creat: 0.7 mg/dL
  ESR: 1 mm/hr
  Hb: 13.0 gm/dl
  Hct: 37.8%
  K^+: 4.4 meq/l
  LDH: 110 IU/L
  MCH: 31.4
  MCHC: 34.4
  MCV: 91.4
  Na^+: 140 meq/l
  SGOT: 15 IU/L
  WBC: 6.7 /cu mm
  albumin: 4.5 gm/dl
  alk phos: 51 IU/l
  cholestrol: 133 mg/dL
  glucose: 96 mg/dL
  lymphs: 33.1%
  monos: 4.9%
  neutr: 62.0%
  phosphate: 3.0 mg/dL
  total protein: 6.4 g/dL
  uric acid: 4.2 mg/dL
Subject #2, 1.0 micrograms/ml
  BUN: 8 mg/dL
  Bilirubin: 0.5 mg/dL
  Bilirubin (direct): 0.1
  CO2: 27 meq/l
  Ca^+: 9.5 mg/dL
  Cl^-: 108 meq/l
  Creat: 0.6 mg/dL
  ESR: 1 mm/hr
  Hb: 12.9 gm/dl
  Hct: 37.3%
  K^+: 4.5 meq/l
  LDH: 97 IU/L
  MCH: 31.6
  MCHC: 34.6
  MCV: 91.3
  Na^+: 141 meq/l
  SGOT: 14 IU/L
  WBC: 6.4 /cu mm
  albumin: 4.4 gm/dl
  alk phos: 52 IU/l
  cholestrol: 131 mg/dL
  glucose: 95 mg/dL
  lymphs: 32.0
  monos: 5.2%
  neutr: 62.8%
  phosphate: 3.1 mg/dL
  total protein: 6.3 g/dL
  uric acid: 4.1 mg/dL
